The target of this assay is T1, human histone demethylase JMJD2A (catalytic domain, residues 1-350) (Homo sapiens, UniProt O75164).
T1 construct: recombinantly produced catalytic domain, residues 1-350, of the human histone demethylase JMJD2A
T1 sequence (O75164 1-350): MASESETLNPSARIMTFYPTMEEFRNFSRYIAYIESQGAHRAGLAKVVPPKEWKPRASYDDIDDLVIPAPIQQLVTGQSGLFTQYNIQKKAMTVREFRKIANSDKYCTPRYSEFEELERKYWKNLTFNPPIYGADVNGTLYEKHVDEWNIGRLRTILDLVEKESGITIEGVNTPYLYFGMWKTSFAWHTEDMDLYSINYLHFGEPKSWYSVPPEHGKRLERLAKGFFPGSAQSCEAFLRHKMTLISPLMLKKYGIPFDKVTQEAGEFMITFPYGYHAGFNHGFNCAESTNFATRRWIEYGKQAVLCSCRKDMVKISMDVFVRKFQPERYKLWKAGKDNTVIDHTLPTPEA
Description: Jumonji type histone demethylase (JMJD2A) activity assay with Luminos reagent formaldehyde fluorescence detection. Particulars: 1.0 mM NOG; 0.5 mM 2-OG, 0.3 mM H3K9me3 peptide, 5 μM JMJD2A, 37° C., 30 minutes; triplicate. The assay is classed as biochemical. How it is done:
A series of demethylase assays with Luminos reagent are performed. These assays are conducted with recombinantly produced catalytic domain, residues 1-350, of the human histone demethylase JMJD2A that demethylates the trimethylated forms of Lys9 and Lys36 in histone H3.
A positive control assay is performed using a 100 microliter assay cocktail of 20 mM HEPES pH 7.5, 50 mM NaCl, 1 mM Sodium Ascorbate, 0.05 mM FeSO4, and 5 μM JMJD2A. The assay is initiated by the addition of the cofactor 2-oxoglutarate (2-OG, 0.5 mM) and a 15-residue histone H3 trimethylated Lys9 (H3K9me3) substrate peptide (0.3 mM, H2N-[…](tri-methyl)STGGKA-amide) (SEQ ID NO. 1).
Three negative control reactions are performed in which 2-OG, the H3K9me3 peptide, and JMJD2A are omitted, respectively. […] Specifically, reactions are performed with 1.0 mM N-oxalylglycine (NOG), a competitive inhibitor of 2-OG, and desferoxamine (0.2 mM), a potent Fe(II) chelator that inhibits the oxidative reaction catalyzed by Fe(II)-dependent JmjC demethylases. […] Fifty microliters of the Luminos reagent solution prepared as described in Example 1 is then added to each reaction and the fluorescence is allowed to develop at 37° C. for 30 minutes. The fluorescence of the formaldehyde-Luminos reagent adduct is measured at 510 nm using an excitation wavelength of 440 nm with a Tecan Safire 2 microplate reader. […]

Structures are written as SMILES.

On to `O=C(O)CNC(=O)C(=O)O` [NOG, N-oxalylglycine], for which the “diminishes fluorescence in comparison to the positive control assay” value is on record as “two-fold”.
